Laboratory results from patent publication US12139520B2 (priority 2020, dated 2024).
Numbered stars: 1 amine (or outer) side, 2 acyl side, 3 side chain; on linkers, the order of the positions; unused ones are H or OH. Bridge positions count the residues as written; N and C are the ends. Square brackets hold non-standard residues; d marks the D form. Peptide text beside a SMILES is read from it. * marks the point of attachment. C20 diacid = O=C(O)CCCCCCCCCCCCCCCCCCC(=O)*; γGlu = O=C(O)[C@H](CCC(=O)[*:2])N[*:1]; Hyp = O=C(O)[C@@H]1C[C@@H](O)CN1

What was measured:
hAM1 receptor = hAM1 receptor (Homo sapiens, UniProt O60895+Q16602); assay: cAMP assay for in vitro receptor activation, hAM1-R; format: cell-based; conditions: cAMP assay, hAM1 receptor; read-out: hAM1R EC50
Chain of hAM1 receptor (Q16602 23-461): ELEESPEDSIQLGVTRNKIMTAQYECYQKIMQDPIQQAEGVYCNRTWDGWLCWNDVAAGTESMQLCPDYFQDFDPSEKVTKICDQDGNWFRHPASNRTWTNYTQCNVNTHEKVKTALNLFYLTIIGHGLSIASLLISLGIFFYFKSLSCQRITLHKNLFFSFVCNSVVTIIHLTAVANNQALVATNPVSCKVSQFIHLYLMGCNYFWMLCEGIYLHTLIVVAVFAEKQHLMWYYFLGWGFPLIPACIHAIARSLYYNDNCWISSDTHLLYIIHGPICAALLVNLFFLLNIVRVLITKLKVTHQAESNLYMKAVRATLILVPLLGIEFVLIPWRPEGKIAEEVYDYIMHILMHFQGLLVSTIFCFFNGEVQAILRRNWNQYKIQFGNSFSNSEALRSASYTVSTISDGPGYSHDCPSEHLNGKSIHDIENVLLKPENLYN
Chain of hAM1 receptor (O60895 43-175 partner): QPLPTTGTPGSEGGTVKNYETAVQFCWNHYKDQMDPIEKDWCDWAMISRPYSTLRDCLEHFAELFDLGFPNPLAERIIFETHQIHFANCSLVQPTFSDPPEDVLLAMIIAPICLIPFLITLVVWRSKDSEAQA
In short: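 Stable hAM1 cells (monoclonal) plated 8000/well; buffer DPBS, 0.05% casein, 0.5 mM IBMX; cAMP read-out.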

hAMY3 receptor = target: T1, hAMY3 receptor (Homo sapiens, UniProt O60896+P30988); assay: cAMP assay for in vitro receptor activation, hAMY3-R; format: cell-based; conditions: cAMP assay, hAMY3 receptor; read-out: hAMY3R EC50
T1 sequence (P30988 25-474): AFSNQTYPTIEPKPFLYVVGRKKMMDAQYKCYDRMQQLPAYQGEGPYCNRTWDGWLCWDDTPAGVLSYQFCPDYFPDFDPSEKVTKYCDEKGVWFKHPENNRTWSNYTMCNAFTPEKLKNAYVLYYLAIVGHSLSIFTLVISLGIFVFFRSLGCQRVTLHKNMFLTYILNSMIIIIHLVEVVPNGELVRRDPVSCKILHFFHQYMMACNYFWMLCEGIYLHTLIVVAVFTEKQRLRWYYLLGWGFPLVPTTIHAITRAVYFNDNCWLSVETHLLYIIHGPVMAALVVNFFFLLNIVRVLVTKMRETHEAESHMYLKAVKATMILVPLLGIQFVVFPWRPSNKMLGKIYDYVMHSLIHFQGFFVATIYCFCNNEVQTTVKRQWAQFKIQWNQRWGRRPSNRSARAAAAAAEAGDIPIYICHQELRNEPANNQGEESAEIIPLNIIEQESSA
T1 sequence (O60896 24-148 partner): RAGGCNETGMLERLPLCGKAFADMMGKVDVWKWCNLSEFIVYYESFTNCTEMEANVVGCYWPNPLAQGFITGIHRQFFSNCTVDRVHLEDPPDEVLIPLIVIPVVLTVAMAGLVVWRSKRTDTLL
In short: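 Stable hAMY3 cells; DPBS + 0.05% casein + 0.5 mM IBMX; graded compound doses, 30 min, RT; cAMP via HTRF Gs kit, TR-FRET read at 1 h.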

EC50 (hAM1 receptor)	EC50 (hAMY3 receptor)	Compound
> 5000 nM	0.051 nM	CC[C@H](C)[C@H](NC(=O)[C@H](C)NC(=O)CNC(=O)[C@H](Cc1ccccc1)NC(=O)[C@H](CC(N)=O)NC(=O)[C@H](CC(N)=O)NC(=O)[C@H](CO)NC(=O)[C@H](CO)NC(=O)[C@H](Cc1c[nH]cn1)NC(=O)[C@@H](NC(=O)[C@H](CC(C)C)NC(=O)[C@H](Cc1ccccc1)NC(=O)[C@H](CC(N)=O)NC(=O)[C@H](C)NC(=O)[C@H](CC(C)C)NC(=O)[C@H](CCCNC(=N)N)NC(=O)[C@H](CCC(N)=O)NC(=O)[C@@H](NC(=O)[C@H](C)NC(=O)[C@@H]1CSSC[C@H](NC(=O)[C@@H](N)CCCCN)C(=O)N[C@@H](CC(N)=O)C(=O)N[C@@H]([C@@H](C)O)C(=O)N[C@@H](C)C(=O)N[C@@H]([C@@H](C)O)C(=O)N1)[C@@H](C)O)C(C)C)C(=O)N[C@@H](CC(C)C)C(=O)N1CCC[C@H]1C(=O)N[C@@H](CO)C(=O)N[C@H](C(=O)N[C@@H](CCCCN)C(=O)N[C@H](C(=O)NCC(=O)N1CCC[C@H]1C(=O)N[C@@H](CC(N)=O)C(=O)NCC(=O)N[C@@H](Cc1ccc(O)cc1)C(N)=O)[C@@H](C)CC)[C@@H](C)O [compound 162] (H-KCNTATCATQRLANFLVHSSNNFGAILPSTKIGPNGY-NH2; disulfide 2-7; N-terminus assumed)
> 5000 nM	0.025 nM	CC[C@H](C)[C@H](NC(=O)[C@H](CCC(N)=O)NC(=O)[C@H](Cc1c[nH]cn1)NC(=O)[C@H](C)NC(=O)[C@H](CC(C)C)NC(=O)[C@H](CCCNC(=N)N)NC(=O)[C@H](CCC(N)=O)NC(=O)[C@@H](NC(=O)[C@@H](NC(=O)[C@@H]1CSSC[C@H](NC(=O)[C@H](CCCCN)NC(=O)CC[C@H](NC(=O)CCCCCCCCCCCCCCCCCCC(=O)O)C(=O)O)C(=O)N[C@@H](CC(N)=O)C(=O)N[C@@H]([C@@H](C)O)C(=O)N[C@@H](C)C(=O)N[C@@H]([C@@H](C)O)C(=O)N1)[C@@H](C)O)C(C)C)C(=O)N[C@@H](C)C(=O)N[C@@H](CCC(N)=O)C(=O)N[C@@H](Cc1ccccc1)C(=O)N[C@H](C(=O)N[C@@H](CC(=O)O)C(=O)N[C@@H](CCCCN)C(=O)N[C@@H](CC(=O)O)C(=O)N[C@@H](CCCCN)C(=O)N[C@@H](CC(=O)O)C(=O)N1CCC[C@H]1C(=O)N[C@H](C(=O)N[C@@H](C)C(=O)N1CCC[C@H]1C(=O)N1CCC[C@H]1C(=O)N[C@H](C(=O)N[C@@H](CC(N)=O)C(=O)N[C@H](C(=O)NCC(=O)N[C@@H](CO)C(=O)N[C@@H](CC(N)=O)C(=O)N[C@@H](CO)C(=O)N1C[C@H](O)C[C@H]1C(N)=O)C(C)C)[C@@H](C)O)C(C)C)[C@@H](C)O [compound 120] ({C20 diacid-γGlu}-KCNTATCTVQRLAHQIAQFTDKDKDPVAPPTNVGSNS[Hyp]-NH2; disulfide 2-7)
> 5000 nM	0.018 nM	CC[C@H](C)[C@H](NC(=O)[C@H](CCC(N)=O)NC(=O)[C@H](CCC(=O)O)NC(=O)[C@H](C)NC(=O)[C@H](CC(C)C)NC(=O)[C@H](CCCNC(=N)N)NC(=O)[C@H](CCC(N)=O)NC(=O)[C@@H](NC(=O)[C@@H](NC(=O)[C@@H]1CSSC[C@H](NC(=O)[C@H](CCCCN)NC(=O)CC[C@H](NC(=O)CCCCCCCCCCCCCCCCCCC(=O)O)C(=O)O)C(=O)N[C@@H](CC(N)=O)C(=O)N[C@@H]([C@@H](C)O)C(=O)N[C@@H](C)C(=O)N[C@@H]([C@@H](C)O)C(=O)N1)[C@@H](C)O)C(C)C)C(=O)N[C@@H](Cc1ccc(O)cc1)C(=O)N[C@@H](CCC(N)=O)C(=O)N[C@@H](Cc1ccccc1)C(=O)N[C@H](C(=O)N[C@@H](C)C(=O)N[C@@H](CCCCN)C(=O)N[C@@H](CC(=O)O)C(=O)N[C@@H](CCCCN)C(=O)N[C@@H](CC(=O)O)C(=O)N[C@@H](CC(N)=O)C(=O)N[C@H](C(=O)N[C@@H](C)C(=O)N1CCC[C@H]1C(=O)N1CCC[C@H]1C(=O)N[C@H](C(=O)N[C@@H](CC(N)=O)C(=O)N[C@H](C(=O)NCC(=O)N[C@@H](CO)C(=O)N[C@@H](CC(N)=O)C(=O)NCC(=O)N1C[C@H](O)C[C@H]1C(N)=O)C(C)C)[C@@H](C)O)C(C)C)[C@@H](C)O [compound 106] ({C20 diacid-γGlu}-KCNTATCTVQRLAEQIYQFTAKDKDNVAPPTNVGSNG[Hyp]-NH2; disulfide 2-7)
> 5000 nM	0.026 nM	CC[C@H](C)[C@H](NC(=O)[C@H](CCC(N)=O)NC(=O)[C@H](CCC(=O)O)NC(=O)[C@H](C)NC(=O)[C@H](CC(C)C)NC(=O)[C@H](CCCNC(=N)N)NC(=O)[C@H](CCC(N)=O)NC(=O)[C@@H](NC(=O)[C@@H](NC(=O)[C@@H]1CSSC[C@H](NC(=O)[C@H](CCCCN)NC(=O)CC[C@H](NC(=O)CCCCCCCCCCCCCCCCCCC(=O)O)C(=O)O)C(=O)N[C@@H](CC(N)=O)C(=O)N[C@@H]([C@@H](C)O)C(=O)N[C@@H](C)C(=O)N[C@@H]([C@@H](C)O)C(=O)N1)[C@@H](C)O)C(C)C)C(=O)N[C@@H](Cc1ccc(O)cc1)C(=O)N[C@@H](CCC(N)=O)C(=O)N[C@@H](Cc1ccccc1)C(=O)N[C@H](C(=O)N[C@@H](CC(=O)O)C(=O)N[C@@H](CCCCN)C(=O)N[C@@H](C)C(=O)N[C@@H](CCCCN)C(=O)N[C@@H](CC(=O)O)C(=O)N[C@@H](CC(N)=O)C(=O)N[C@H](C(=O)N[C@@H](C)C(=O)N1CCC[C@H]1C(=O)N1CCC[C@H]1C(=O)N[C@H](C(=O)N[C@@H](CC(N)=O)C(=O)N[C@H](C(=O)NCC(=O)N[C@@H](CO)C(=O)N[C@@H](CC(N)=O)C(=O)NCC(=O)N1C[C@H](O)C[C@H]1C(N)=O)C(C)C)[C@@H](C)O)C(C)C)[C@@H](C)O [compound 122] ({C20 diacid-γGlu}-KCNTATCTVQRLAEQIYQFTDKAKDNVAPPTNVGSNG[Hyp]-NH2; disulfide 2-7)
130 nM	0.028 nM	CC[C@H](C)[C@H](NC(=O)[C@H](C)NC(=O)CNC(=O)[C@H](Cc1ccccc1)NC(=O)[C@H](CC(N)=O)NC(=O)[C@H](CC(N)=O)NC(=O)[C@H](CO)NC(=O)[C@H](CO)NC(=O)[C@H](Cc1c[nH]cn1)NC(=O)[C@@H](NC(=O)[C@H](CC(C)C)NC(=O)[C@H](Cc1ccccc1)NC(=O)[C@H](CC(N)=O)NC(=O)[C@H](C)NC(=O)[C@H](CC(C)C)NC(=O)[C@H](CCCNC(=N)N)NC(=O)[C@H](CCC(N)=O)NC(=O)[C@@H](NC(=O)[C@H](C)NC(=O)[C@@H]1CSSC[C@H](NC(=O)[C@@H](N)CCCCN)C(=O)N[C@@H](CC(N)=O)C(=O)N[C@@H]([C@@H](C)O)C(=O)N[C@@H](C)C(=O)N[C@@H]([C@@H](C)O)C(=O)N1)[C@@H](C)O)C(C)C)C(=O)N[C@@H](C)C(=O)N1CCC[C@H]1C(=O)N[C@@H](CO)C(=O)N[C@H](C(=O)N[C@@H](CCCCN)C(=O)N[C@H](C(=O)NCC(=O)N1CCC[C@H]1C(=O)N[C@@H](CC(N)=O)C(=O)NCC(=O)N[C@@H](Cc1ccc(O)cc1)C(N)=O)[C@@H](C)CC)[C@@H](C)O [compound 128] (H-KCNTATCATQRLANFLVHSSNNFGAIAPSTKIGPNGY-NH2; disulfide 2-7; N-terminus assumed)
> 5000 nM	0.007 nM	CC[C@H](C)[C@H](NC(=O)[C@H](CCC(N)=O)NC(=O)[C@H](CC(=O)O)NC(=O)[C@H](C)NC(=O)[C@H](CC(C)C)NC(=O)[C@H](CCCNC(=N)N)NC(=O)[C@H](C)NC(=O)[C@@H](NC(=O)[C@@H](NC(=O)[C@@H]1CSSC[C@H](NC(=O)[C@@H](N)CCCCN)C(=O)N[C@@H](CC(N)=O)C(=O)N[C@@H]([C@@H](C)O)C(=O)N[C@@H](CO)C(=O)N[C@@H]([C@@H](C)O)C(=O)N1)[C@@H](C)O)C(C)C)C(=O)N[C@H](C(=O)N[C@@H](CCC(N)=O)C(=O)N[C@@H](Cc1ccccc1)C(=O)N[C@@H](CO)C(=O)N[C@@H](CC(=O)O)C(=O)N[C@@H](CCCCN)C(=O)N[C@@H](CC(=O)O)C(=O)N[C@@H](CCCCN)C(=O)N[C@@H](C)C(=O)N[C@@H](CC(N)=O)C(=O)N[C@H](C(=O)N[C@@H](CO)C(=O)N1CCC[C@H]1C(=O)N1CCC[C@H]1C(=O)N[C@H](C(=O)N[C@@H](CCC(=O)O)C(=O)N[C@H](C(=O)NCC(=O)N1CCC[C@H]1C(=O)N[C@@H](CC(N)=O)C(=O)N[C@@H](CO)C(=O)N1C[C@H](O)C[C@H]1C(N)=O)C(C)C)[C@@H](C)O)C(C)C)[C@@H](C)O [compound 15] (H-KCNTSTCTVARLADQITQFSDKDKANVSPPTEVGPNS[Hyp]-NH2; disulfide 2-7; N-terminus assumed)
